Experiments:
RXRα [1] = molecular target: T1, RXRα (Homo sapiens, UniProt P19793); test: ligand binding assay; conditions: read-out: Kd RXR α binding
T1 construct: expressed in transfected cells
T1 sequence (P19793 1-462): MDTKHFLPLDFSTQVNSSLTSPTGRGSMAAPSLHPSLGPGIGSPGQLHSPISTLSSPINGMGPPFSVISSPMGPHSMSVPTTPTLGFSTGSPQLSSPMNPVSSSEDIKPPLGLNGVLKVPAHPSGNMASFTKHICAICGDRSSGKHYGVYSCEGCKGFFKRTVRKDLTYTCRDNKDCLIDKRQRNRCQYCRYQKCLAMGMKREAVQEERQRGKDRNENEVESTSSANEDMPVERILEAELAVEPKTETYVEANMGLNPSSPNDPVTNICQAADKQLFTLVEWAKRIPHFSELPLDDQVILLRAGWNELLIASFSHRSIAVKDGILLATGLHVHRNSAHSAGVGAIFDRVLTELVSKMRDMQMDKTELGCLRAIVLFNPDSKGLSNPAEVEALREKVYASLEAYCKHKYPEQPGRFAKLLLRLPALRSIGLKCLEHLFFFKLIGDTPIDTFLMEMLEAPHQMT
From the text: (§1) A holoreceptor transactivation assay and a ligand binding assay which measure the antagonist/agonist like activity of the compounds of the invention, or their ability to bind to the several retinoid receptor subtypes, respectively, are described in published PCT Application No. WO WO93/11755 (particularly on pages 30-33 and 37-41) published on Jun. 24, 1993, the specification of which is also incorporated herein by reference. A detailed experimental procedure for holoreceptor transactivations has been described by Heyman et al. Cell 68, 397-406, (1992); Allegretto et al. J. Biol. Chem. 268, 26625-26633, and Mangelsdorf et al. The Retinoids: Biology, Chemistry and Medicine, pp 319-349, Raven Press Ltd., New York, which are expressly incorporated herein by reference. The results obtained in this assay are expressed in EC50 numbers, as they are also in the chimeric receptor transactivation assay. The results of ligand binding assay are expressed in Kd numbers. (See Cheng et as. Biochemical Pharmacology Vol. 22 pp 3099-3108, expressly incorporated herein by reference.)

RXRγ [2] = molecular target: T2, RXRγ (Homo sapiens, UniProt P48443); test: ligand binding assay; conditions: read-out: Kd RXR γ binding
T2 construct: expressed in transfected cells
T2 sequence (P48443 1-463): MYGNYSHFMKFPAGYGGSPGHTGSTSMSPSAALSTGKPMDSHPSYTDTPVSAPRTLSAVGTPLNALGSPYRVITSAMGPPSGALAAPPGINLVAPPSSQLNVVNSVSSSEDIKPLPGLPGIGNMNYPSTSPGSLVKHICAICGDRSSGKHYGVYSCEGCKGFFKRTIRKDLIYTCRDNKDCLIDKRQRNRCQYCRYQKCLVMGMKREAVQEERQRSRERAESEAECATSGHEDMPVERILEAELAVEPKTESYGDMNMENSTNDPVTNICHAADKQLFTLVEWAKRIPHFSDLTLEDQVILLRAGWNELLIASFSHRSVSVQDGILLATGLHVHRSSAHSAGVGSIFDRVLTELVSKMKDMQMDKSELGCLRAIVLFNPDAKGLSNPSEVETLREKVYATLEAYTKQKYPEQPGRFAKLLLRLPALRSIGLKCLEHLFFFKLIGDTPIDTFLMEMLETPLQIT
From the text: as §1

RXRα [3] = molecular target: T1, RXRα; test: RXR receptor transactivation assay; assay type: cell-based; conditions: for Emax: read-out: % Eff RXR α transactivation; for EC50: read-out: EC50 RXR α transactivation
From the text: The specification of U.S. Pat. No. 5,455,265 is hereby expressly incorporated by reference.
as §1

RXRβ [4] = molecular target: T3, RXRβ (Homo sapiens, UniProt P28702); test: RXR receptor transactivation assay; assay type: cell-based; conditions: for Emax: read-out: % Eff RXR β transactivation; for EC50: read-out: EC50 RXR β transactivation
T3 construct: expressed in transfected cells
T3 sequence (P28702 1-533): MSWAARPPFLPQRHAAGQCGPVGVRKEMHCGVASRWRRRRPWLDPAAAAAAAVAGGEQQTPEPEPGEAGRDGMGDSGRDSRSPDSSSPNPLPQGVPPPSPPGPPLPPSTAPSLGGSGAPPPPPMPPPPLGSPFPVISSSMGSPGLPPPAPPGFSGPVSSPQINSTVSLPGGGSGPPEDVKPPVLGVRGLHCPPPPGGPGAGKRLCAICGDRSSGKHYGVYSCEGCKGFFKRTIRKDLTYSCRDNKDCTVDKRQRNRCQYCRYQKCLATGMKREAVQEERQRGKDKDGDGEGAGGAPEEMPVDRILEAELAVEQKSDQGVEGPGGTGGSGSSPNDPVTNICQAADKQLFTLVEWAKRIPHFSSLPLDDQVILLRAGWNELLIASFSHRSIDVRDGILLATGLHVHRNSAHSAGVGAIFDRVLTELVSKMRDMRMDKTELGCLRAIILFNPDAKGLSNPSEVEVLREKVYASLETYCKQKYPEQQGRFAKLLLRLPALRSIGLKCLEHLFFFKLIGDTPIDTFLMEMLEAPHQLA
From the text: as §1

RXRγ [5] = molecular target: T2, RXRγ; test: RXR receptor transactivation assay; assay type: cell-based; conditions: for Emax: read-out: % Eff RXR γ transactivation; for EC50: read-out: EC50 RXR γ transactivation
From the text: as §1

RXRβ [6] = molecular target: T3, RXRβ; test: ligand binding assay; conditions: read-out: Kd RXR β binding
From the text: as §1

For CCC1(c2cc(C(C)C)cc(C(C)C)c2)CC1/C=C/C(C)=C/C(=O)O (single isomer, unassigned; (+)) [Compound 7], the Kd (RXRα [1]) was 0.05 nM, the Kd (RXRγ [2]) was 7.3 nM and the Emax (RXRα [3]) was 147%. It also gave an Emax (RXRβ [4]) of 152%, an EC50 (RXRβ [4]) of 0.06 nM and an Emax (RXRγ [5]) of 156%.
CCCC1(c2cc(C(C)(C)C)cc(C(C)(C)C)c2)CC1/C=C/C(C)=C/C(=O)O (single isomer, unassigned; (+)) [Compound 14] was tested, and the Kd (RXRα [1]) was 0.03 nM, the Kd (RXRγ [2]) was 3.7 nM and the Emax (RXRα [3]) was 93%. For the same compound, the EC50 (RXRα [3]) was 9 nM, the Emax (RXRβ [4]) was 80% and the EC50 (RXRβ [4]) was 4.3 nM. It also gave an Emax (RXRγ [5]) of 86% and an EC50 (RXRγ [5]) of 1.3 nM.
For CCCC1(c2ccc3c(c2)C(C(C)(C)C)=CCC3(C)C)CC1/C=C/C(C)=C/C(=O)O (single isomer, unassigned; (+)) [Compound 22], the Kd (RXRα [1]) was 0.027 nM, the Kd (RXRγ [2]) was 0.58 nM and the Emax (RXRα [3]) was 94%. It also gave an EC50 (RXRα [3]) of 0.3 nM, an Emax (RXRβ [4]) of 88% and an EC50 (RXRβ [4]) of 1.8 nM. It also gave an Emax (RXRγ [5]) of 110% and an EC50 (RXRγ [5]) of 0.8 nM.
In the case of CCCC1(c2ccc3c(c2)C(C(C)C)=CCC3(C)C)CC1/C=C/C(C)=C/C(=O)O (single isomer, unassigned; (+)) [Compound 34], the Kd (RXRα [1]) is reported as 0.01 nM, the Kd (RXRγ [2]) is reported as 1.4 nM and the Emax (RXRα [3]) is reported as 105%. The EC50 (RXRα [3]) was 0.05 nM, the Emax (RXRβ [4]) was 98% and the EC50 (RXRβ [4]) was 0.9 nM. It also gave an Emax (RXRγ [5]) of 115% and an EC50 (RXRγ [5]) of 0.1 nM.
With CC1=CC(C)(C)Oc2cc(C3(C)CC3/C=C/C(C)=C/C(=O)O)ccc21 (centres unmarked) [Compound 28] the Kd (RXRα [1]) was 0.21 nM, the Kd (RXRγ [2]) was 3.1 nM and the Emax (RXRα [3]) was 103%. For the same compound, the EC50 (RXRα [3]) was 0.05 nM, the Emax (RXRβ [4]) was 111% and the EC50 (RXRβ [4]) was 0.46 nM. It also gave an Emax (RXRγ [5]) of 96% and an EC50 (RXRγ [5]) of 0.14 nM.
In the case of CC(/C=C/[C@@H]1C[C@]1(C)c1ccc2c(c1)C(C(C)(C)C)=CCC2(C)C)=C\C(=O)O [Compound 57], the Kd (RXRβ [6]) is reported as 0.8 nM, the Kd (RXRα [1]) is reported as 0.01 nM and the Kd (RXRγ [2]) is reported as 4.2 nM. It also gave an Emax (RXRα [3]) of 95%, an EC50 (RXRα [3]) of 0.1 nM and an Emax (RXRβ [4]) of 95%. For the same compound, the EC50 (RXRβ [4]) was 0.7 nM, the Emax (RXRγ [5]) was 89% and the EC50 (RXRγ [5]) was 0.1 nM.
With CC(/C=C/[C@@H]1C[C@]1(C)c1ccc2c(c1)C(C(C)C)=CCC2(C)C)=C\C(=O)O [Compound 64, 7(1-Isoproply-4,4-dimethyl-3,4-dihydronaphthalen-7-yl](6S,7S)-6,7-methano-3,7-dimethyl-hepta-2E,4E-dienoic acid] the Kd (RXRβ [6]) was 6 nM, the Kd (RXRα [1]) was 0.7 nM and the Kd (RXRγ [2]) was 3 nM. The Emax (RXRα [3]) was 109%, the EC50 (RXRα [3]) was 0.1 nM and the Emax (RXRβ [4]) was 109%. It also gave an EC50 (RXRβ [4]) of 0.3 nM, an Emax (RXRγ [5]) of 108% and an EC50 (RXRγ [5]) of 0.1 nM.
CC(/C=C/[C@@H]1C[C@]1(C)c1ccc2c(c1)OC(C)(C)C=C2C(C)C)=C\C(=O)O [Compound 87] was tested, and the Kd (RXRβ [6]) was 2.9 nM, the Kd (RXRα [1]) was 0.05 nM and the Kd (RXRγ [2]) was 0.32 nM. The Emax (RXRα [3]) was 102%, the EC50 (RXRα [3]) was 0.1 nM and the Emax (RXRβ [4]) was 107%. For the same compound, the EC50 (RXRβ [4]) was 0.3 nM, the Emax (RXRγ [5]) was 116% and the EC50 (RXRγ [5]) was 0.1 nM.
CC(/C=C/[C@@H]1C[C@]1(C)c1ccc2c(c1)OC(C)(C)C=C2C(C)(C)C)=C\C(=O)O [Compound 88] showed a Kd (RXRβ [6]) of 1.6 nM, a Kd (RXRα [1]) of 0.17 nM and a Kd (RXRγ [2]) of 1.4 nM. The Emax (RXRα [3]) was 106%, the EC50 (RXRα [3]) was 0.1 nM and the Emax (RXRβ [4]) was 107%. For the same compound, the EC50 (RXRβ [4]) was 0.1 nM, the Emax (RXRγ [5]) was 105% and the EC50 (RXRγ [5]) was 0.1 nM.
CCCCC1=CC(C)(C)Oc2cc([C@@]3(C)C[C@H]3/C=C/C(C)=C/C(=O)O)ccc21 [Compound 89] was tested, and the Kd (RXRβ [6]) was 0.6 nM, the Kd (RXRα [1]) was 0.19 nM and the Kd (RXRγ [2]) was 1.4 nM. It also gave an Emax (RXRα [3]) of 110%, an EC50 (RXRα [3]) of 0.1 nM and an Emax (RXRβ [4]) of 99%. The EC50 (RXRβ [4]) was 0.1 nM, the Emax (RXRγ [5]) was 112% and the EC50 (RXRγ [5]) was 0.1 nM.
Compound CC(/C=C/[C@@H]1C[C@]1(C)c1cc(C(C)(C)C)cc(C(C)(C)C)c1)=C\C(=O)O [Compound 96, 7-(3,5-di-t-Butylphenyl)-(6S,7S)-6,7-methano-3,7-dimethyl-hepta-2E,4E-dienoic acid] has a Kd (RXRβ [6]) of 1.7 nM, a Kd (RXRα [1]) of 0.6 nM and a Kd (RXRγ [2]) of 2.8 nM. For the same compound, the Emax (RXRα [3]) was 87%, the EC50 (RXRα [3]) was 1 nM and the Emax (RXRβ [4]) was 85%. For the same compound, the EC50 (RXRβ [4]) was 9 nM, the Emax (RXRγ [5]) was 112% and the EC50 (RXRγ [5]) was 2 nM.

Source: US6403638B1, “2,4-pentadienoic acid derivatives having selective activity for retinoid X (RXR) receptors” (Allergan Sales, Inc., priority 1998, dated 2002)
